From US7172867B2, “Methods of testing for allergic diseases, and therapeutic agents for treating same” (priority 2002, dated 2007)
“Also recorded” adds a separate entry of the source. Like-named read-outs stand apart in the source and are kept apart here.

B1: IL-4: cytokine used for eosinophil activation (protein, UniProt P05112 25-153, looked up)
Interleukin-4: HKCDITLQEIIKTLNSLTEQKTLCTELTVTDIFAASKNTTEKETFCRAATVLRQFYSHHEKDTRCLGATAQQFHRHKQLIRFLKRLDRNLWGLAGLNSCPVKEANQSTLENFLERLKTIMREKYSKCSS

Assays:
TR3 (Nur77) [1] = target: T1, TR3 (Nur77) (Homo sapiens, UniProt P22736); assay: Mammalian two hybrid luciferase reporter system for TR3 ligand search (GAL4-TR3 LBD or full length, NIH3T3 cells, with or without RXRα); assay type: cell-based; conditions: for Nur77 LBD-ligand activity RXR(+): TR3 LBD fused to GAL4, RXRα added, NIH3T3 luciferase, ◯ with concentration, X
T1 construct: expressed in transfected cells; host or cells: NIH3T3
Protocol: (§1) A TR3 or TINUR ligand-binding site is inserted into X, and the full-length retinoic acid X receptor (RXR) α gene is inserted into Y. These constructs are transfected into NIH3T3 cells, and the activity of induced luciferase is measured.
This was done to facilitate expression of a protein in which the DNA binding domains of TR3 and GAL4 were fused in frame. A plasmid comprising the TR3 ligand binding domain sequence inserted into pBIND, and a luciferase reporter plasmid comprising a GAL4 binding site, were co-transfected into NIH3T3 cells. Luciferase activity was measured automatically. At this time, activity was also measured by adding a retinoic acid X receptor (RXR) α-gene, which is a transcription factor that forms a heterodimer with TR3. By further adding low molecular weight substances to this system, transcriptional enhancement activity can also be used for screening.
TR3 expression is enhanced in activated eosinophils, such as in the peripheral blood of atopic dermatitis patients. Ligands existing in vivo may exist in sites where nuclear receptors are highly expressed. Therefore, small molecule lipid-soluble mediators considered to be produced under such conditions were added to the assay system, and evaluated based on their ability to enhance luciferase activity. […] In this manner, the method established by the present inventors paved the way for the high throughput discovery of native and synthetic TR3 ligands.
(§2) Thus, it was implied that prostaglandin A2 functions by acting on the LBD region of the nuclear receptor.

TINUR (Nurr1) [2] = target: T2, TINUR (Nurr1) (Homo sapiens, UniProt P43354); assay: Mammalian two hybrid luciferase reporter system for TINUR ligand search (GAL4-TINUR LBD or full length, NIH3T3 cells, with or without RXRα); assay type: cell-based; conditions: for Nurr1 LBD-ligand activity RXR(+): TINUR LBD fused to GAL4, RXRα added, NIH3T3 luciferase, ◯ with concentration, X
T2 construct: expressed in transfected cells; host or cells: NIH3T3
Protocol: as §1
Target sequence in this assay (P43354 360-598): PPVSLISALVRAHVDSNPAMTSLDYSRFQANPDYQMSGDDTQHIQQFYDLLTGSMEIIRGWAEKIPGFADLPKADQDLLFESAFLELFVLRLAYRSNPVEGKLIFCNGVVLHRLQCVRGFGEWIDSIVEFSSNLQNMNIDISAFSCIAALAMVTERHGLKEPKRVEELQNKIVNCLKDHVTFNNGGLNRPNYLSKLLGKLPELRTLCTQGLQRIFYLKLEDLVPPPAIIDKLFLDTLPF
A plasmid comprising the TINUR ligand binding domain sequence inserted into pBIND, and a luciferase reporter plasmid comprising a GAL4 binding site, were co-transfected into NIH3T3 cells. Luciferase activity was measured automatically. At the same time, activity measurement was also carried out by adding retinoic acid X receptor (RXR) α-gene, a transcription factor that forms a heterodimer with TINUR. Low molecular weight substances can also be added to this system to screen using transcriptional enhancement activity.
Like TR3 expression, TINUR expression is enhanced in activated eosinophils. Ligands existing in vivo may exist in sites where nuclear receptors are highly expressed. […] Ligands of the nuclear receptor subfamily are assumed to have structural redundancy. Therefore, derivatives similar to TR3 activator compounds were added, and enhancement of transcriptional activity was investigated.
as §2

TR3 LBD = target: T3, TR3 LBD (Homo sapiens, UniProt P22736); assay: Binding to TR3 GST-LBD by BIAcor S51; conditions: BIAcor S51, comparison with GST as a base
T3 construct: TR3 GST-LBD and TINUR GST-LBD were respectively expressed in E. coli, and then purified; made in house; host or cells: E. coli
Description: In the present invention, a biosensor utilizing the phenomenon of surface plasmon resonance may also be used to detect or measure the bound compound. […] Therefore, biosensors such as BIACORE can be used to evaluate binding between the TR3 or TINUR protein and a test compound.

TINUR LBD = target: T4, TINUR LBD (Homo sapiens, UniProt P43354); assay: Binding to TINUR GST-LBD by BIAcor S51; conditions: BIAcor S51, comparison with GST as a base
T4 construct: TR3 GST-LBD and TINUR GST-LBD were respectively expressed in E. coli, and then purified; made in house; host or cells: E. coli

TR3 (Nur77) [3] = target: T1, TR3 (Nur77); assay: Mammalian two hybrid luciferase reporter system for TR3 ligand search (GAL4-TR3 LBD or full length, NIH3T3 cells, with or without RXRα); assay type: cell-based; conditions: for Full length Nur77-ligand activity RXR(+): full length TR3 fused to GAL4, RXRα added; for Full length Nur77-ligand activity RXR(+) / Full length Nur77-ligand activity RXR(−): NIH3T3 luciferase, ◯ with concentration, X; for Full length Nur77-ligand activity RXR(−): full length TR3 fused to GAL4, without RXRα
TINUR (Nurr1) [4] = target: T2, TINUR (Nurr1); assay: Mammalian two hybrid luciferase reporter system for TINUR ligand search (GAL4-TINUR LBD or full length, NIH3T3 cells, with or without RXRα); assay type: cell-based; conditions: NIH3T3 luciferase, ◯ with concentration, X; for Full length Nurr1-ligand activity RXR(+): full length TINUR fused to GAL4, RXRα added; for Full length Nurr1-ligand activity RXR(−): full length TINUR fused to GAL4, without RXRα
Target sequence in this assay (P43354 whole entry, the tested form may be a part): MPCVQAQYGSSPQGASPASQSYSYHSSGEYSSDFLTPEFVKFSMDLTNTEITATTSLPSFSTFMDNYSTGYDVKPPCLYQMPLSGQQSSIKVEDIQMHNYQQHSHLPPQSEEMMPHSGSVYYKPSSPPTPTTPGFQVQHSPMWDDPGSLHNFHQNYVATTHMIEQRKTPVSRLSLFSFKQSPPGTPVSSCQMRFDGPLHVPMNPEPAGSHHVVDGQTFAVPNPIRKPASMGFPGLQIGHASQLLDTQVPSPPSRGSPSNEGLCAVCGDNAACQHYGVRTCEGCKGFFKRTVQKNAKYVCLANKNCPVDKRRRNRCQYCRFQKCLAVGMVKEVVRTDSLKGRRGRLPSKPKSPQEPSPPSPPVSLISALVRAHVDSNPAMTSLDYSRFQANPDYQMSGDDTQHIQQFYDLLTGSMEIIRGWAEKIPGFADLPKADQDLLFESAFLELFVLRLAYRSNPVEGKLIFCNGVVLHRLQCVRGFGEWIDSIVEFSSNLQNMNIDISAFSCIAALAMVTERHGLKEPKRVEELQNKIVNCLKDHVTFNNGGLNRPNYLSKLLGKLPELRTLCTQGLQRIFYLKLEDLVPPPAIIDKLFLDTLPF

TINUR (Nurr1) [5] = assay: as above; assay type: cell-based, human; conditions: LBD deletion mutant (ΔLBD)
[6] = system: TR3 expression in peripheral blood eosinophils; assay: TR3 expression induction in cultured peripheral blood eosinophils; assay type: cell-based, human; conditions: cultured peripheral blood eosinophils from healthy subjects, one to three-hour treatment

T3 sequence (P22736 360-595 limits assumed): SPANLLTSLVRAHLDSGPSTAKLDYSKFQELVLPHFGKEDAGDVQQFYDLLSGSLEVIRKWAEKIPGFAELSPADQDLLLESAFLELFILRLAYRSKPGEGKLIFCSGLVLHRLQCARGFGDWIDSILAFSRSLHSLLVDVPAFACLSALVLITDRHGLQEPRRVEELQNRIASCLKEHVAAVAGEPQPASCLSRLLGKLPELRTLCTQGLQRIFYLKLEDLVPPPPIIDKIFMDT
T4 sequence (P43354 360-595 limits assumed): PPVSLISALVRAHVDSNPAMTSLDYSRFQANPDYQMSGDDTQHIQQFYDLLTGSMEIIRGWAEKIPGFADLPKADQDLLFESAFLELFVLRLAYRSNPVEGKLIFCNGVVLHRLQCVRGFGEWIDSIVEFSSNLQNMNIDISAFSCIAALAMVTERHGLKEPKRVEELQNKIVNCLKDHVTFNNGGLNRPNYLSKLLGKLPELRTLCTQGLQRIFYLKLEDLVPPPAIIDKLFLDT

Molecule | activity of enhancing the transcription-activating ability of TR3 (luciferase reporter), in words (TR3 (Nur77) [1]) | Nur77 LBD-ligand activity RXR(+) (TR3 (Nur77) [1]) | activity of activating TINUR transcription (luciferase reporter), in words (TINUR (Nurr1) [2]) | Nurr1 LBD-ligand activity RXR(+) (TINUR (Nurr1) [2]) | binding to the LBD of TR3 (TR3 LBD) | binding to the LBD of TINUR (TINUR LBD) | transcriptional activity with TR3 gene completely lacking an LBD region (TR3 (Nur77) [3]; LBD deletion mutant (ΔLBD)) | Full length Nur77-ligand activity RXR(+) (TR3 (Nur77) [3]) | Full length Nur77-ligand activity RXR(−) (TR3 (Nur77) [3]) | Full length Nurr1-ligand activity RXR(+) (TINUR (Nurr1) [4]) | Full length Nurr1-ligand activity RXR(−) (TINUR (Nurr1) [4]) | transcriptional activity with TINUR gene completely lacking an LBD region (TINUR (Nurr1) [5]) | activity of activating TINUR transcription (luciferase reporter), in words (TINUR (Nurr1) [2]; listed as 15-deoxy-delta 12,14-prostaglandin J2) | TR3 induction [6]
CCCCC[C@H](O)/C=C/[C@H]1C=CC(=O)[C@@H]1C/C=C\CCCC(=O)O [Prostaglandin A2] | ligand activators for TR3; also recorded: the activity of enhancing the transcription-activating ability of TR3 was found | ◯10 μM | ligand activators; also recorded: found to comprise the activity of activating TINUR transcription | ◯10 μM | detected | detected | suppressed | ◯10 μM | ◯10 μM | ◯10 μM | ◯10 μM | suppressed |  | 
CCCCC/C=C/C=C1/C(=O)C=C[C@@H]1C/C=C\CCCC(=O)O [15-deoxy-Δ^12.14_Prostaglandin J2] | ligand activators for TR3 |  |  | ◯10 μM |  |  |  | ◯10 μM | ◯10 μM |  |  |  | ligand activators; also recorded: found to comprise the activity of activating TINUR transcription | 
CCCCC[C@H](O)C/C=C1/C(=O)C=C[C@@H]1C/C=C\CCCC(=O)O [Δ12-Prostaglandin J2] | the activity of enhancing the transcription-activating ability of TR3 was found |  |  |  |  |  |  |  |  |  |  |  |  | 
CCCCC[C@@](C)(O)/C=C/[C@H]1C=CC(=O)[C@@H]1C/C=C\CCCC(=O)O [15(R)-15-methylProstaglandin A2] | ligand activators for TR3; also recorded: the activity of enhancing the transcription-activating ability of TR3 was found | ◯10 μM | ligand activators; also recorded: found to comprise the activity of activating TINUR transcription | ◯10 μM |  |  |  | ◯10 μM | ◯10 μM | ◯10 μM |  |  |  | 
O=C(O)CCC/C=C\C[C@H]1C(=O)C=C[C@@H]1/C=C/[C@@H](O)COc1ccccc1 [16-phenoxytetranorProstaglandin A2] | ligand activators for TR3 |  | ligand activators; also recorded: found to comprise the activity of activating TINUR transcription | ◯10 μM |  |  |  |  | ◯30 μM | ◯30 μM | ◯30 μM |  |  | 
O=C(O)CCC/C=C\C[C@H]1C(=O)C=C[C@@H]1/C=C/[C@@H](O)CCc1ccccc1 [17-phenyl trinorProstaglandin A2] | ligand activators for TR3 | ◯10 μM | ligand activators; also recorded: found to comprise the activity of activating TINUR transcription | ◯10 μM |  |  |  | ◯10 μM |  | ◯10 μM |  |  |  | 
CCCCC/C=C/C=C1/C=CC(=O)[C@@H]1CCCCCCC(=O)O [15-deoxy-Δ^12.14_Prostaglandin A1] | ligand activators for TR3 | ◯30 μM |  |  |  |  |  | ◯30 μM |  |  |  |  |  | 
CCCCC[C@H](O)/C=C/[C@H]1C=CC(=O)[C@H]1CCCCCCC(=O)O [8-isoProstaglandin A1] | ligand activators for TR3 | ◯10 μM | ligand activators; also recorded: found to comprise the activity of activating TINUR transcription | ◯10 μM |  |  |  | ◯ 3 μM |  | ◯10 μM |  |  |  | 
CCCCC[C@H](O)/C=C/[C@H]1C=CC(=O)[C@@H]1CCCCCCC(=O)O [Prostaglandin A1] | ligand activators for TR3; also recorded: the activity of enhancing the transcription-activating ability of TR3 was found | ◯10 μM | ligand activators; also recorded: found to comprise the activity of activating TINUR transcription | ◯10 μM | detected | detected |  | ◯10 μM | ◯10 μM | ◯10 μM | ◯10 μM |  |  | 
CCCCC[C@@H](O)/C=C/[C@H]1C=CC(=O)[C@@H]1CCCCCCC(=O)O [15-epiProstaglandin A1] | ligand activators for TR3; also recorded: the activity of enhancing the transcription-activating ability of TR3 was found | ◯10 μM | ligand activators; also recorded: found to comprise the activity of activating TINUR transcription | ◯10 μM |  |  |  | ◯10 μM | ◯10 μM |  |  |  |  | 
IL-5: cytokine used for eosinophil activation |  |  |  |  |  |  |  |  |  |  |  |  |  | did not lead to TR3 induction
B1 |  |  |  |  |  |  |  |  |  |  |  |  |  | did not lead to TR3 induction
